{"source": "paper PMC5699210", "about": "(Bioorganic & medicinal chemistry letters, 2011)", "tested_on": "rats with inflammation of the dura", "assay": "Rat model of migraine pain", "type": "in vivo", "details": "oral 30 mg/kg", "note": "“Also recorded” adds a separate entry of the source.", "data": [{"smiles": "CN1CCC[C@@H]1CCn1ccc2ccc(NC(=N)c3cccs3)cc21.Cl.Cl", "note": "[(R)-8]", "values": [{"measurement": "tactile hyperesthesia (allodynia) of the hindpaw", "setting": "15 min prior to the inflammatory soup, 30 mg/kg", "result": "attenuated the development of allodynia between 2 and 6 h post-dose; also recorded: attenuates the tactile hyperesthesia (allodynia); also recorded: reduce tactile hyperesthesia (allodynia)"}, {"measurement": "time of maximum effect on allodynia", "setting": "post-dose", "result": 4, "unit": "h"}]}]}
